Measurements as given in the supplement of paper PMC10307832.

Key:
Assay in all cases: relative viability (nuclei count vs DMSO), 5 days (fraction); higher = more cells survive
NCI-H1395 = test system: NCI-H1395
In short: (§1)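 Medians of duplicate plates are given as relative viability. That measure is the nuclei count in treated wells divided by the count in vehicle wells. Counts were taken on 4× images of lung cancer cell lines in 1536-well plates, 5 days after pin-tool dosing the day after seeding with one drug alone or a fixed anchor-drug dose plus five library-drug doses (not always all listed) in √10 steps.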

NCI-H2347 = test system: NCI-H2347
In short: as §1

NCI-H2087 = test system: NCI-H2087
In short: as §1

NCI-H1666 = test system: NCI-H1666
In short: as §1

NCI-H838 = test system: NCI-H838
In short: as §1

EMC-BAC-2 = test system: EMC-BAC-2
In short: as §1

NCI-H1993 = test system: NCI-H1993
In short: as §1

HARA = test system: HARA
In short: as §1

NCI-H647 = test system: NCI-H647
In short: as §1

NCI-H3122 = test system: NCI-H3122
In short: as §1

NCI-H2009 = test system: NCI-H2009
In short: as §1

NCI-H727 = test system: NCI-H727
In short: as §1

LCLC-103H = test system: LCLC-103H
In short: as §1

HCC-44 = test system: HCC-44
In short: as §1

LOU-NH91 = test system: LOU-NH91
In short: as §1

NCI-H596 = test system: NCI-H596
In short: as §1

NCI-H23 = test system: NCI-H23
In short: as §1

NCI-H2023 = test system: NCI-H2023
In short: as §1

BEN = test system: BEN
In short: as §1

NCI-H2126 = test system: NCI-H2126
In short: as §1

201T = test system: 201T
In short: as §1

NCI-H650 = test system: NCI-H650
In short: as §1

NCI-H441 = test system: NCI-H441
In short: as §1

NCI-H522 = test system: NCI-H522
In short: as §1

C[C@@H]1CN(CC(=O)Nc2ccc3c(c2)Cc2cccc(-c4cc(=O)cc(N5CCOCC5)o4)c2S3)C[C@H](C)O1 + Nc1ncn([C@H]2C[C@H](O)[C@@H](CO)O2)c(=O)n1 [Decitabine] (partner 2 µM)
relative viability (NCI-H1395; first compound 0.1265 µM): 0.763 | relative viability (NCI-H1395; first compound 0.4 µM): 0.653 | relative viability (NCI-H1395; first compound 4 µM): 0.752 | relative viability (NCI-H2347; first compound 0.04 µM): 0.581 | relative viability (NCI-H2347; first compound 0.1265 µM): 0.624 | relative viability (NCI-H2347; first compound 0.4 µM): 0.693 | relative viability (NCI-H2347; first compound 4 µM): 0.637 | relative viability (NCI-H2087; first compound 0.04 µM): 0.306 | relative viability (NCI-H2087; first compound 0.1265 µM): 0.336 | relative viability (NCI-H2087; first compound 0.4 µM): 0.267 | relative viability (NCI-H2087; first compound 4 µM): 0.254 | relative viability (NCI-H1666; first compound 0.04 µM): 0.744 | relative viability (NCI-H1666; first compound 0.1265 µM): 0.743 | relative viability (NCI-H1666; first compound 0.4 µM): 0.677 | relative viability (NCI-H1666; first compound 4 µM): 0.669 | relative viability (NCI-H838; first compound 0.04 µM): 0.46 | relative viability (NCI-H838; first compound 0.1265 µM): 0.472 | relative viability (NCI-H838; first compound 0.4 µM): 0.518 | relative viability (NCI-H838; first compound 4 µM): 0.492 | relative viability (EMC-BAC-2; first compound 0.04 µM): 0.887 | relative viability (EMC-BAC-2; first compound 0.1265 µM): 1.05 | relative viability (EMC-BAC-2; first compound 0.4 µM): 0.948 | relative viability (EMC-BAC-2; first compound 4 µM): 0.827 | relative viability (NCI-H1993; first compound 0.04 µM): 0.701 | relative viability (NCI-H1993; first compound 0.1265 µM): 0.55 | relative viability (NCI-H1993; first compound 0.4 µM): 0.566 | relative viability (NCI-H1993; first compound 4 µM): 0.644 | relative viability (HARA; first compound 0.04 µM): 0.594 | relative viability (HARA; first compound 0.1265 µM): 0.522 | relative viability (HARA; first compound 0.4 µM): 0.454 | relative viability (HARA; first compound 4 µM): 0.717 | relative viability (NCI-H647; first compound 0.04 µM): 0.442 | relative viability (NCI-H647; first compound 0.1265 µM): 0.376 | relative viability (NCI-H647; first compound 0.4 µM): 0.369 | relative viability (NCI-H647; first compound 4 µM): 0.346 | relative viability (NCI-H3122; first compound 0.04 µM): 0.423 | relative viability (NCI-H3122; first compound 0.1265 µM): 0.396 | relative viability (NCI-H3122; first compound 0.4 µM): 0.42 | relative viability (NCI-H3122; first compound 4 µM): 0.436 | relative viability (NCI-H2009; first compound 0.04 µM): 0.31 | relative viability (NCI-H2009; first compound 0.1265 µM): 0.363 | relative viability (NCI-H2009; first compound 0.4 µM): 0.383 | relative viability (NCI-H2009; first compound 4 µM): 0.34 | relative viability (NCI-H727; first compound 0.04 µM): 1.14 | relative viability (NCI-H727; first compound 0.1265 µM): 1 | relative viability (NCI-H727; first compound 0.4 µM): 0.99 | relative viability (NCI-H727; first compound 4 µM): 0.8 | relative viability (LCLC-103H; first compound 0.04 µM): 0.693 | relative viability (LCLC-103H; first compound 0.1265 µM): 0.695 | relative viability (LCLC-103H; first compound 0.4 µM): 0.697 | relative viability (LCLC-103H; first compound 4 µM): 0.737 | relative viability (HCC-44; first compound 0.04 µM): 0.898 | relative viability (HCC-44; first compound 0.1265 µM): 0.93 | relative viability (HCC-44; first compound 0.4 µM): 0.972 | relative viability (HCC-44; first compound 4 µM): 0.953 | relative viability (LOU-NH91; first compound 0.04 µM): 0.857 | relative viability (LOU-NH91; first compound 0.1265 µM): 0.819 | relative viability (LOU-NH91; first compound 0.4 µM): 0.81 | relative viability (LOU-NH91; first compound 4 µM): 0.749 | relative viability (NCI-H596; first compound 0.04 µM): 1.01 | relative viability (NCI-H596; first compound 0.1265 µM): 1.11 | relative viability (NCI-H596; first compound 0.4 µM): 1.11 | relative viability (NCI-H596; first compound 4 µM): 0.798 | relative viability (NCI-H23; first compound 0.04 µM): 0.347 | relative viability (NCI-H23; first compound 0.1265 µM): 0.266 | relative viability (NCI-H23; first compound 0.4 µM): 0.296 | relative viability (NCI-H23; first compound 4 µM): 0.334 | relative viability (NCI-H2023; first compound 0.04 µM): 0.197 | relative viability (NCI-H2023; first compound 0.1265 µM): 0.227 | relative viability (NCI-H2023; first compound 0.4 µM): 0.225 | relative viability (NCI-H2023; first compound 4 µM): 0.224 | relative viability (BEN; first compound 0.04 µM): 0.702 | relative viability (BEN; first compound 0.1265 µM): 0.696 | relative viability (BEN; first compound 0.4 µM): 0.81 | relative viability (BEN; first compound 4 µM): 0.735 | relative viability (NCI-H2126; first compound 0.04 µM): 0.543 | relative viability (NCI-H2126; first compound 0.1265 µM): 0.567 | relative viability (NCI-H2126; first compound 0.4 µM): 0.623 | relative viability (NCI-H2126; first compound 4 µM): 0.593 | relative viability (201T; first compound 0.04 µM): 0.816 | relative viability (201T; first compound 0.1265 µM): 0.818 | relative viability (201T; first compound 0.4 µM): 0.84 | relative viability (201T; first compound 4 µM): 0.791 | relative viability (NCI-H650; first compound 0.04 µM): 0.346 | relative viability (NCI-H650; first compound 0.1265 µM): 0.336 | relative viability (NCI-H650; first compound 0.4 µM): 0.377 | relative viability (NCI-H650; first compound 4 µM): 0.341 | relative viability (NCI-H441; first compound 0.04 µM): 0.249 | relative viability (NCI-H441; first compound 0.1265 µM): 0.222 | relative viability (NCI-H441; first compound 0.4 µM): 0.29 | relative viability (NCI-H441; first compound 4 µM): 0.328 | relative viability (NCI-H522; first compound 0.04 µM): 0.663 | relative viability (NCI-H522; first compound 0.1265 µM): 0.689 | relative viability (NCI-H522; first compound 0.4 µM): 0.641 | relative viability (NCI-H522; first compound 4 µM): 0.724
